# How the values were obtained:
# [1] = test system: p-ERK in human cutaneous neurofibroma (cNF) explants; experiment: Human cutaneous neurofibroma explant protocol, p-ERK suppression; type: cell-based
# Text: Study Objectives: The primary objective was to assess the efficacy of a topically-formulated compound described herein in suppressing p-ERK, a downstream biomarker of RAS/MAPK signaling in neurofibroma explants.
# Primary dermal neurofibromas or cutaneous neurofibromas were obtained from patients with clinical or genetic diagnoses of NFL. […] Specimens were identified under the direction of the Principal Investigator and placed in cell proliferation media (DMEM/F12 containing penicillin/streptomycin (0.1%); fungizone (40 μg/mL); B27 (without vitamin A).
# Specimens were identified under the direction of the Principal Investigator
# Specimens were chopped into 2 mm fragments and placed in 24-well plates containing cell proliferation media (DMEM/F12 containing penicillin/streptomycin (0.1%); fungizone (40 μg/mL); B27 (without vitamin A) and submerged in media with drug. For topical gel application, samples were placed in 96 well plates with epidermal surface exposed to air.
# The gel formulation was 1% hydroxypropyl cellulose in DMSO/PEG 400 1:1 (v/v). Harvested tissue was bisected and with half snap frozen and half fixed in 10% formalin and paraffin embedded for further analysis.
# Samples were harvested at 4 hours with half snap frozen in liquid nitrogen and half fixed in 10% formalin and paraffin embedded for histologic analysis.
# Western Blot analysis: For immunoblotting, total skin biopies were lysed in lysis buffer and run on Western blots. Antibodies used for immunoblotting included rabbit anti-phospho-p44/42 MAPK (1:3000, Cell Signaling) and rabbit anti-p44/42 MAPK (1:3000, Cell Signaling), rabbit anti-phospho-Mek1/2 (1:3000, Cell Signaling), mouse anti-actin (1:5000, Sigma-Aldrich), donkey anti-mouse IgG conjugated to horseradish peroxidase (HRP; 1:40,000, Amersham Biosciences) and goat anti-rabbit IgG conjugated HRP (1:40,000, Jackson ImmunoResearch).
# Immunohistochemistry: Immunohistochemistry was performed on 5 pm paraffin sections. Antigen retrieval with enzyme treatment (1:1000) using standard protocols. Antibodies used were rabbit p-ERK (Cell Signaling, 4307S, 1:100). Bond Polymer Refine anti-rabbit HRP Detection (Leica Biosystems) was used according to manufacturer's protocol. Sections were then counterstained with hematoxylin, dehydrated and film coverslipped using a TissueTek-Prisma and Coverslipper (Sakura).
# Data Analysis: Semi-quantative Western blot was used to assess differences in p-ERK in samples treated with a compound described herein compared to vehicle control.
# [2] = S9 stability assay, human liver S9 fraction; type: in vitro ADME
# How it was run: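 Incubation at 37 °C of 1 μM compound with 2 mg/mL human liver S9 protein and 1 mM NADPH in 100 mM potassium phosphate pH 7.4 (1 mM EDTA, 3 mM MgCl2), sampled at 0, 15, 30, 60 min. Parent loss by LC/MS/MS gave t1/2 and CLint = 0.693/t1/2 × mL incubation/mg S9 protein.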
# [3] = test system: A375 cells; experiment: A375 (BRAF) GI50 cell-based assay (Cell Titer-Glo); settings: Homo sapiens, A-375; 72 hours; read-out: Assay 2: A375 (BRAF) GI50
# Protocol: (§1) Alternatively, the following procedure can be used to measure cell-based activity. Test compounds were dissolved in DMSO in 10 mM stock. Cell Titer-Glo® 2.0 Luminescent cell viability assay reagent was purchased from Promega (Madison, Wis.). A375 and HCT116 cell lines were purchased from American Type Culture Collection (Manassas, Va.). For A375 cells, cell culture media was DMEM+10% FBS. For HCT116 cells, cell culture media was McCoy's 5A+10% FBS. All media were supplemented with 100 μg/mL of penicillin, and 100 μg/mL of streptomycin. Cultures were maintained at 37° C. in a humidified atmosphere of 5% CO2 and 95% air.
# (§2) Test compounds were diluted in DMSO solution with 10-dose and 3-fold dilutions in a source plate starting at 10 mM. 25 nL of each test compound was delivered from the source plate to each well of the 384-well cell culture plates (T=Final) by Echo 550. 25 μL of culture medium containing 2000 of A375 or HCT116 cells was added to each of the wells in duplicates of the cell culture plates (T=0 and T=Final). 25 μL of Cell Titer Glo 2.0 reagent was added to each well of cell culture plate (T=0). The contents were mixed on an orbital shaker for 2 min and incubated at room temperature for 15 min to stabilize luminescent signal. Luminescence was recorded by Envision 2104 Multilabel Reader (PerkinElmer, Santa Clara, Calif.). The number of viable cells in culture was determined based on quantitation of the ATP present in each culture well. The cells in cell culture plate (T=Final) were incubated with the compounds at 37° C., 5% CO2 for 72 hours. 25 μL of Cell Titer Glo 2.0 reagent was added to each well. The contents were mixed on an orbital shaker for 2 min and incubated at room temperature for 15 min to stabilize luminescent signal. Luminescence was recorded by Envision 2104 Multilabel Reader (PerkinElmer, Santa Clara, Calif.). The number of viable cells in culture was determined based on quantitation of the ATP present in each culture well. The G150 curves were plotted using the GraphPad Prism 4 program based on a sigmoidal dose-response equation Y=Bottom+(Top−Bottom)/(1+10^((Log EC50−X)*HillSlope)). All parameters in the equation were calculated by GraphPad Prism 4 program. […] Accordingly, GI50 is the value of 10^X, where X was calculated by the Curve Fitting Equation when Y=50 using Excel.
# [4] = test system: HCT116 cells; experiment: HCT116 (Kras) GI50 cell-based assay (Cell Titer-Glo); settings: Homo sapiens, HCT-116; 72 hours; read-out: Assay 3: HCT116 (Kras) GI50
# Protocol: as §1, §2
# [5] = Compound levels in neck/back skin (LCMS), in vivo mouse model; set-up: species or system mice; settings: for concentration at 1 h / concentration at 2 h: male, C57BL/6J, mouse, neck/back skin; for concentration at 1 h: 1 h after final application; for concentration at 2 h: 2 h after final application; for Compound Levels in Neck/Back Skin: pre-dose (16 h)
# Protocol: (§3) Week 4 (Experiment end): Skin and blood were collected right before the last morning dose (N=3), 1 hour (N=3 mice), and 2 hours (N=3 mice) after final application; Blood draw: Plasma compound levels (LCMS); Skin biopsy: formalin fixed for histology and p-ERK staining, flash frozen for Western analysis and skin compound levels (LCMS)
# Skin biopsy and GI tract sampling: Skin was wiped down with 100% ethanol and a 1 cm^2 biopsy was obtained from compound application site each mouse at the 25 day end of experiment (except as noted below). The skin was biopsied prior to final dose from 3 mice, 1 hour after last compound application from 3 mice, 2 hours after last compound application from 3 mice. Half of the specimen were immediately flash frozen for LCMS analysis and Western Blot Analysis. Half of the specimen was fixed for 24 hours in 10% formalin and then transferred to ethanol for immunohistochemistry. Gastrointestinal tract was also formalin fixed overnight then transferred to 70% ETOH for storage.
# (§4) Compound level analysis: Liquid chromatography with mass spectrometry method (LCMS) was used to detect compound levels in the skin and plasma. Tissues were preprocessed prior to LCMS as follows. Tissues were minced and incubated with collagenase and then finally homogenized using the stainless steel beads prior to LCMS analysis. Calibration curves and a QC test were run with each assay.
# [6] = Plasma LCMS compound levels, in vivo mouse model; set-up: species or system mice; settings: for concentration at 1 h / concentration at 2 h: male, C57BL/6J, mouse, plasma; for concentration at 1 h: 1 h after final application; for concentration at 2 h: 2 h after final application; for Plasma LCMS Compound Levels: pre-dose (16 h)
# Protocol: These mice were also shaved weekly.
# as §3, §4
structure (smiles),measurement,setting,value
"Cn1c(Nc2ccc(I)cc2F)c(C(=O)NOCCO)c2cccnc21 [Example 2, 2-((2-Fluoro-4-iodophenyl)amino)—N-(2-hydroxyethoxy)-1-methyl-1H-pyrrolo[2,3-b]pyridine-3-carboxamide]",suppression of p-ERK,"[1]; FIG. 2, 500 nM, explant submerged in media, 4 hours",suppression of p-ERK
same,dose-dependent suppression of p-ERK,"[1]; FIG. 3, explant submerged in media, 4 hours",dose-dependent suppression of p-ERK
same,p-ERK after application of a topical gel,"[1]; FIG. 4, gel 1% hydroxypropyl cellulose in DMSO/PEG 400 1:1, 4 hours",p-ERK was suppressed
same,suppression of pERK,"[1]; FIGS. 1a and 1b, explant submerged in media, 4 hours",suppression of pERK
same,Assay 5: human liver S9 instrinsic clearance value,"[2]; Table 2, 1 μM, 2 mg/mL S9 protein, NADPH",21.45 μL/min/mg protein
same,microsomal CLint at 1 μM,"[2]; pH 7.4, Table 1, human liver S9 fraction, read-out: CLint",21.4 µL/min/mg
same,half-life at 1 μM,"[2]; pH 7.4, Table 1, human liver S9 fraction, read-out: Liver S9 t1/2",16 min
same,GI50,[3],63 nM
same,GI50,[4],196 nM
same,concentration at 1 h,[5]; topical 0.1%,14000 ng/mL
same,concentration at 2 h,[5]; topical 0.1%,4880 ng/mL
same,concentration at 1 h,[5]; topical 0.5%,289000 ng/mL
same,concentration at 2 h,[5]; topical 0.5%,81600 ng/mL
same,concentration at 1 h,[5]; topical 1%,683000 ng/mL
same,concentration at 2 h,[5]; topical 1%,378000 ng/mL
same,Compound Levels in Neck/Back Skin,[5]; topical 0.1%,5620 ng/mL
same,Compound Levels in Neck/Back Skin,[5]; topical 0.5%,49170 ng/mL
same,Compound Levels in Neck/Back Skin,[5]; topical 1%,14730 ng/mL
same,concentration at 1 h,[6]; topical 0.1%,174 ng/mL
same,concentration at 2 h,[6]; topical 0.1%,37.9 ng/mL
same,concentration at 1 h,[6]; topical 0.5%,1040 ng/mL
same,concentration at 2 h,[6]; topical 0.5%,102 ng/mL
same,concentration at 1 h,[6]; topical 1%,1020 ng/mL
same,concentration at 2 h,[6]; topical 1%,262 ng/mL
same,Plasma LCMS Compound Levels,[6]; topical 0.1%,1.18 ng/mL
same,Plasma LCMS Compound Levels,[6]; topical 0.5%,4.78 ng/mL
same,Plasma LCMS Compound Levels,[6]; topical 1%,24.98 ng/mL

# Reference: patent US11161845B2, “Pyrrolopyridine-aniline compounds for treatment of dermal disorders” (Nflection Therapeutics, Inc., priority 2017, dated 2021)
